Data published in ChEMBL document CHEMBL1777736, “New indole amide derivatives as potent CRTH2 receptor antagonists” (Bioorg Med Chem Lett, 2011).

Legend:
[1] = in vivo; conditions: Sprague-Dawley, rat
[2] = in vivo; conditions: Sprague-Dawley, rat, iv, 1 mg/kg
[3] = in vivo; conditions: Sprague-Dawley, rat, iv, 1 mg/kg; remark: listed apart in the source
[4] = in vivo; conditions: Sprague-Dawley, rat, po, 5 mg/kg

| half-life [1] [h] | clearance [2] [mL/min/kg] | Vd [3] [L/kg] | bioavailability [4] [%] | Structure (SMILES) |
| --- | --- | --- | --- | --- |
| 4.7 | 1.1 | 0.36 | 73 | C[C@@H](C(=O)N(C)[C@@H]1CCc2c(CC(=O)O)c3ccccc3n2C1)c1ccc(F)cc1 |
| – | – | 1.1 | 138 | CN([C@@H]1CCc2c(CC(=O)O)c3ccccc3n2C1)S(=O)(=O)c1ccc(F)cc1 [MK-7246] |
